Results taken from patent publication US9221827B2, “Antimicrobial compounds and methods of making and using the same” (Melinta Therapeutics, Inc., priority 2011, dated 2015).

system: Escherichia coli strain ATCC25922; experiment: standard microdilution assay to determine minimum inhibitory concentrations (MICs); type: cell-based; conditions: Escherichia coli strain ATCC25922, microdilution
Outline: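 Broth microdilution per CLSI (M7-A8/M100-S20), 100 μl final volume, with reference-strain quality control; MIC is the lowest inhibitory concentration. Scored "+"/"−" against a 16 micrograms/ml cutoff, "N/A" where unavailable.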

Structure (SMILES) | E. coli ATCC25922 MIC
C=CC[C@H](NCCCNC(=N)N)c1ccc(-n2cc3cc(-c4cc(CCC[C@H](C)N)cc(Cl)c4F)[nH]c3nc2=O)cc1 [Compound 472] | + (a “+” indicates that the compound has an MIC value of 16 micrograms/ml or less)
C=C[C@H](NCCCNC(=N)N)c1ccc(-n2cc3cc(-c4cc(CCC[C@H](C)N)cc(SC(F)(F)F)c4)[nH]c3nc2=O)cc1 [Compound 473] | + (a “+” indicates that the compound has an MIC value of 16 micrograms/ml or less)
C=CC[C@H](NCCCNC(=N)N)c1ccc(-n2cc3cc(-c4cc(CCC[C@H](C)N)cc(C(F)(F)F)c4)[nH]c3nc2=O)cc1 [Compound 474] | + (a “+” indicates that the compound has an MIC value of 16 micrograms/ml or less)
C=C[C@H](NCCCNC(=N)N)c1ccc(-n2cc3cc(-c4cc(CCC[C@H](C)N)cc(Cl)c4F)[nH]c3nc2=O)cc1 [Compound 475] | + (a “+” indicates that the compound has an MIC value of 16 micrograms/ml or less)
N=C(N)NCCCNCc1ccc(-n2cc3cc(-c4cc(CCC5COCC5N)cc(OC(F)(F)F)c4)[nH]c3nc2=O)cc1 (stereo not drawn) [Compound 476] | + (a “+” indicates that the compound has an MIC value of 16 micrograms/ml or less)
C[C@H](NCCCNC(=N)N)c1ccc(-n2cc3cc(-c4cc(CCC5COCC5N)cc(OC(F)(F)F)c4)[nH]c3nc2=O)cc1 (stereo partly drawn) [Compound 477] | + (a “+” indicates that the compound has an MIC value of 16 micrograms/ml or less)
CC(N)COC(C)c1cc(-c2cc3cn(-c4ccc([C@H](C)NCCCNC(=N)N)cc4)c(=O)nc3[nH]2)cc(C(F)(F)F)c1 (stereo partly drawn) [Compound 478] | + (a “+” indicates that the compound has an MIC value of 16 micrograms/ml or less)
CCC(N)COC(C)c1cc(-c2cc3cn(-c4ccc(CNCCCNC(=N)N)cc4)c(=O)nc3[nH]2)cc(C(F)(F)F)c1 (stereo not drawn) [Compound 479] | + (a “+” indicates that the compound has an MIC value of 16 micrograms/ml or less)
CCC(N)COC(C)c1cc(-c2cc3cn(-c4ccc([C@H](C)NCCCNC(=N)N)cc4)c(=O)nc3[nH]2)cc(C(F)(F)F)c1 (stereo partly drawn) [Compound 480] | + (a “+” indicates that the compound has an MIC value of 16 micrograms/ml or less)
C=CC(NCCCNC(=N)N)c1ccc(-n2cc3cc(-c4cc(CCCC(C)N)cc(Cl)c4F)[nH]c3nc2=O)cc1 (stereo not drawn) [Compound 481] | + (a “+” indicates that the compound has an MIC value of 16 micrograms/ml or less)
C=CC(NCCCNC(=N)N)c1ccc(-n2cc3cc(-c4cc(CCCC(C)N)cc(C(F)(F)F)c4)[nH]c3nc2=O)cc1 (stereo not drawn) [Compound 482] | + (a “+” indicates that the compound has an MIC value of 16 micrograms/ml or less)
CC(N)CCCc1cc(-c2cc3cn(-c4ccc(CNCCCNC(=N)N)cc4)c(=O)nc3[nH]2)cc(C2CCCC2)c1 (stereo not drawn) [Compound 483] | + (a “+” indicates that the compound has an MIC value of 16 micrograms/ml or less)
CC(N)CCCc1cc(-c2cc3cn(-c4ccc(C(C)NCCCNC(=N)N)cc4)c(=O)nc3[nH]2)cc(C2CCCC2)c1 (stereo not drawn) [Compound 484] | + (a “+” indicates that the compound has an MIC value of 16 micrograms/ml or less)
CC(N)CCCc1cc(-c2cc3cn(-c4ccc(C5(NCCCNC(=N)N)CC5)cc4)c(=O)nc3[nH]2)cc(C(F)(F)F)c1 (stereo not drawn) [Compound 485] | + (a “+” indicates that the compound has an MIC value of 16 micrograms/ml or less)
CC(N)CCCc1cc(Cl)c(F)c(-c2cc3cn(-c4ccc(C5(NCCCNC(=N)N)CC5)cc4)c(=O)nc3[nH]2)c1 (stereo not drawn) [Compound 486] | + (a “+” indicates that the compound has an MIC value of 16 micrograms/ml or less)
COC(=O)CC(NCCCNC(=N)N)c1ccc(-n2cc3cc(-c4cc(CCCC(C)N)cc(Cl)c4F)[nH]c3nc2=O)cc1 (stereo not drawn) [Compound 487] | + (a “+” indicates that the compound has an MIC value of 16 micrograms/ml or less)
COC(=O)CC(NCCCNC(=N)N)c1ccc(-n2cc3cc(-c4cc(CCCC(C)N)cc(C(F)(F)F)c4)[nH]c3nc2=O)cc1 (stereo not drawn) [Compound 488] | + (a “+” indicates that the compound has an MIC value of 16 micrograms/ml or less)
CC(N)CCCc1cc(Cl)c(F)c(-c2cc3cn(-c4ccc(C(CC(=O)O)NCCCNC(=N)N)cc4)c(=O)nc3[nH]2)c1 (stereo not drawn) [Compound 489] | + (a “+” indicates that the compound has an MIC value of 16 micrograms/ml or less)
CC(N)CCCc1cc(-c2cc3cn(-c4ccc(C(CC(=O)O)NCCCNC(=N)N)cc4)c(=O)nc3[nH]2)cc(C(F)(F)F)c1 (stereo not drawn) [Compound 490] | − (a “−” indicates that the compound has an MIC value greater than 16 micrograms/ml)
COC(=O)CC(NCCCNC(=N)N)c1ccc(-n2cc3cc(-c4cc(CCCC(C)N)cc(SC(F)(F)F)c4)[nH]c3nc2=O)cc1 (stereo not drawn) [Compound 491] | + (a “+” indicates that the compound has an MIC value of 16 micrograms/ml or less)
CC(N)CCCc1cc(-c2cc3cn(-c4ccc(C(C)NCCCNC(=N)N)cc4)c(=O)nc3[nH]2)c(F)c(Cl)c1F (stereo not drawn) [Compound 493] | + (a “+” indicates that the compound has an MIC value of 16 micrograms/ml or less)
COC(=O)C(NCCCNC(=N)N)c1ccc(-n2cc3cc(-c4cc(CCCC(C)N)cc(Cl)c4F)[nH]c3nc2=O)cc1 (stereo not drawn) [Compound 494] | + (a “+” indicates that the compound has an MIC value of 16 micrograms/ml or less)
CC(N)CCCc1cc(Cl)c(F)c(-c2cc3cn(-c4ccc(C(NCCCNC(=N)N)C(=O)O)cc4)c(=O)nc3[nH]2)c1 (stereo not drawn) [Compound 495] | + (a “+” indicates that the compound has an MIC value of 16 micrograms/ml or less)
COC(=O)C(NCCCNC(=N)N)c1ccc(-n2cc3cc(-c4cc(CCCC(C)N)cc(C(F)(F)F)c4)[nH]c3nc2=O)cc1 (stereo not drawn) [Compound 496] | + (a “+” indicates that the compound has an MIC value of 16 micrograms/ml or less)
CC(N)CCCc1cc(-c2cc3cn(-c4ccc(C(NCCCNC(=N)N)C(=O)O)cc4)c(=O)nc3[nH]2)cc(C(F)(F)F)c1 (stereo not drawn) [Compound 497] | − (a “−” indicates that the compound has an MIC value greater than 16 micrograms/ml)
COC(=O)C(NCCCNC(=N)N)c1ccc(-n2cc3cc(-c4cc(CCCC(C)N)cc(SC(F)(F)F)c4)[nH]c3nc2=O)cc1 (stereo not drawn) [Compound 498] | + (a “+” indicates that the compound has an MIC value of 16 micrograms/ml or less)
CC(N)CCCc1cc(-c2cc3cn(-c4ccc(CNCCCNC(=N)N)cc4)c(=O)nc3[nH]2)c(F)c(Cl)c1F (stereo not drawn) [Compound 499] | + (a “+” indicates that the compound has an MIC value of 16 micrograms/ml or less)
CC(N)CCCc1cc(SC(F)(F)F)cc(-c2cc3cn(-c4ccc(C5(NCCCNC(=N)N)CC5)cc4)c(=O)nc3[nH]2)c1 (stereo not drawn) [Compound 500] | + (a “+” indicates that the compound has an MIC value of 16 micrograms/ml or less)
C=CC(NCCCNC(=N)N)c1ccc(-n2cc3cc(-c4cc(CCCC(C)N)cc(C(F)(F)F)c4)[nH]c3nc2=O)cc1 (stereo not drawn) [Compound 501] | + (a “+” indicates that the compound has an MIC value of 16 micrograms/ml or less)
C=CC(NCCCNC(=N)N)c1ccc(-n2cc3cc(-c4cc(CCCC(C)N)cc(SC(F)(F)F)c4)[nH]c3nc2=O)cc1 (stereo not drawn) [Compound 502] | + (a “+” indicates that the compound has an MIC value of 16 micrograms/ml or less)
